Residues, ends and D or L forms follow the SMILES beside them.
What was measured:
healthy C57BL/6 mice = test: Mouse tolerability studies; type: in vivo; settings: free form, i.p., healthy mice
Experimental: Naïve, female C57BL/6 mice at 8 to 10 weeks of age (18 to 21 g) from the Jackson Laboratory were used. […] Clinical observations and body weights were made twice daily.
Naïve, female C57BL/6 mice at 8 to 10 weeks of age (18 to 21 g) from the Jackson Laboratory were used. Animals were randomly grouped (5 mice per group) and i.p. injected with 400 mg/kg G-HV21, G-KV21 or G-TE21. Clinical observations and body weights were made twice daily.

[1] = Crossing of blood-retinal and blood-brain barrier (rho B-labeled); settings: mouse, in vivo
Experimental: Litters of C57BL/6J (Jackson Laboratory, Bar Harbor, Me.) neonatal mice and nursing dams were exposed to a hyperoxia environment (75% oxygen) from postnatal day 7 (P7) to P12 and returned to normoxia until P17. The hyperoxia exposure causes degeneration of the immature retinal vessels. […] Beginning on P7, mice were treated until day P17 by daily i.p. injections of GF9, GF9-SLP, TREM-1/TRIOPEP-sSLP or vehicle (phosphate-buffered saline, pH 7.4; PBS). […] In another subset of experiments, rho B-labeled Gd-containing sSLP were used to confirm the ability of these targeted SLP to cross the BRB in other species (rats and rabbits). In another subset of experiments, neonatal mice and nursing dams were not subjected to a hyperoxia environment and reared in room air (RA). At P17, all mice were humanely sacrificed and their retinas were collected.
Litters of C57BL/6J (Jackson Laboratory, Bar Harbor, Me.) neonatal mice and nursing dams were exposed to a hyperoxia environment (75% oxygen) from postnatal day 7 (P7) to P12 and returned to normoxia until P17. The hyperoxia exposure causes degeneration of the immature retinal vessels. […] Beginning on P7, mice were treated until day P17 by daily i.p. injections of G-KV21, G-TE21 at indicated doses or vehicle (PBS, pH 7.4). In certain embodiments, neonatal mice and nursing dams were not subjected to a hyperoxia environment and reared in room air. […]

[2] = system: mice with oxygen-induced retinopathy (OIR); test: oxygen-induced retinopathy (OIR) in mice; type: in vivo
Excerpt: The membrane was probed for TREM-1, reprobed for CSF1 and then for β-actin.

[3] = penetration of the blood-brain and blood-retinal barrier after systemic administration; type: in vivo; settings: rhodamine B-labeled; mice intraperitoneally; rats and rabbits intravenously (G-KV21)
TREM-1 = target: T1, TREM-1 (Mus musculus, UniProt Q9JKE2); test: Immunofluorescence colocalization with TREM-1 in the cell membrane; type: cell-based; settings: J774A.1; 6 h; Dylight 488-labeled, pre-incubated with HDL
T1 construct: endogenous in cells; host or cells: BALB/c murine macrophage cell line J774A.1 (ATCC)
Experimental: BALB/c murine macrophage J774A.1 cells were obtained from ATCC (Manassas, Va.) and cultured according to manufacturer's instructions at 37° C. in 6-well tissue culture plates containing glass coverslips until reaching about 50% confluency. Then, cells were incubated for 6 h at 37° C. either with rho B-labeled GF9-SLP that contained Dylight labeled GF9 or TREM-1/TRIOPEP-sSLP that contained Dylight 488-labeled GE31. In colocalization experiments, TREM-1 staining was performed using an Alexa 647-labeled rat anti-mouse TREM-1 antibody (Bio-Rad, Hercules, Calif.) as described in Shen and Sigalov. J Cell Mol Med 2017, 21:2524-2534. Coverslips were mounted using Prolong Gold anti-fade DAPI (4′,6-diamidino-2-phenylindole) mounting medium and photographed using an Olympus BX60 fluorescence microscope. Confocal imaging was performed using a Leica TCS SP5 II laser scanning confocal microscope as described in Shen and Sigalov. J Cell Mol Med 2017, 21:2524-2534.
BALB/c murine macrophage J774A.1 cells were grown at 37° C. in six-well tissue culture plates containing glass coverslips. […] ProLong Gold Antifade DAPI (4′,6′-diamidino-2-phenylindole) mounting medium was used to mount coverslips, and the slides were photographed using an Olympus BX60 fluorescence microscope. […]

T1 sequence (O54885 22-114 partner): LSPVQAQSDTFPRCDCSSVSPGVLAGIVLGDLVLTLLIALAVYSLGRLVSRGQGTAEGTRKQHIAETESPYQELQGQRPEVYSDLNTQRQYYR
T1 sequence (Q9JKE2 21-230): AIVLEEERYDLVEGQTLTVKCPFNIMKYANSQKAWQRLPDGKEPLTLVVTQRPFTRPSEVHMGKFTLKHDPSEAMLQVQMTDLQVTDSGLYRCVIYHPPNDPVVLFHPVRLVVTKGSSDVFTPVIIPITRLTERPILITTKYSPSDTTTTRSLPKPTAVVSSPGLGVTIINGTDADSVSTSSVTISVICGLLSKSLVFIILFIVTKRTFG

Row | SMILES | dose at which non-toxic and well tolerated (healthy C57BL/6 mice) | passage of blood-retinal barrier (BRB) and blood-brain barrier (BBB) [1] | pathological retinal neovascularization (RNV) ([2]; 25 mg/kg GF9, 2.5 mg/kg GF9-sSLP, 4 mg/kg GA/E31-sSLP where stated) | retinal tissue expression of TREM-1 and CSF-1 (M-CSF) ([2]; P17, Western blot) | penetration of the BBB and BRB [3] | self-insertion into the cell membrane and colocalization with TREM-1 (TREM-1)
1 | CC(C)C[C@H](NC(=O)[C@H](Cc1ccccc1)NC(=O)CN)C(=O)N[C@@H](CO)C(=O)N[C@@H](CCCCN)C(=O)N[C@@H](CO)C(=O)N[C@@H](CC(C)C)C(=O)N[C@H](C(=O)N[C@@H](Cc1ccccc1)C(=O)O)C(C)C [GF9] (H-GFLSKSLVF-OH) | at least 300 mg/kg | pass the blood-retinal barrier (BRB) and blood-brain barrier (BBB) | – | – | – | –
2 | CC(C)C[C@H](NC(=O)[C@H](Cc1ccccc1)NC(=O)CN)C(=O)N[C@@H](CO)C(=O)N[C@@H](CCCCN)C(=O)N[C@@H](CO)C(=O)N[C@@H](CC(C)C)C(=O)N[C@H](C(=O)N[C@@H](Cc1ccccc1)C(=O)N[C@@H](Cc1c[nH]c2ccccc12)C(=O)N[C@@H](CCC(N)=O)C(=O)N[C@@H](CCC(=O)O)C(=O)N[C@@H](CCC(=O)O)C(=O)N[C@@H](CC[S+](C)[O-])C(=O)N[C@@H](CCC(=O)O)C(=O)N[C@@H](CC(C)C)C(=O)N[C@@H](Cc1ccc(O)cc1)C(=O)N[C@@H](CCCNC(=N)N)C(=O)N[C@@H](CCC(N)=O)C(=O)N[C@@H](CCCCN)C(=O)N[C@H](C(=O)O)C(C)C)C(C)C (stereo partly drawn) [G-KV21] (HELM PEPTIDE1{G.F.L.S.K.S.L.V.F.W.Q.E.E.[CS(=O)CC[C@H](N[*:1])C(=O)[*:2]].E.L.Y.R.Q.K.V}$$$$V2.0) | – | – | significantly suppresses pathological RNV | inhibits tissue expression of TREM-1 and M-CSF | penetration of the BBB and BRB | self-inserts into the cell membrane and colocalizes with TREM-1

From US20210322508A1, “PEPTIDES AND COMPOSITIONS FOR TARGETED TREATMENT AND IMAGING” (SIGNABLOK, INC., priority 2018, published 2021)
